Measurements from patent US10759783B2, “Biaryl inhibitors of Bruton'S tyrosine kinase” (BIOGEN MA INC., priority 2013, dated 2020).

Key:
[1] = target: T1, BTK enzyme (Homo sapiens, UniProt Q06187); experiment: In vitro BTK kinase assay: BTK-POLYGAT-LS assay; assay type: biochemical; settings: ATP 10 μM, read-out: IC50 (10uMATP)
T1 construct: purchased Upstate 14-552
Method in brief: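 Human BTK activity was measured with final 10 μM ATP and 100 nM polyGAT substrate in pH 7.5 Tris buffer with 10 mM MgCl2, DTT, Triton X-100 and casein.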

[2] = target: BTK (phospho-BTK) in human whole blood (Homo sapiens, UniProt Q06187); experiment: In vitro PD assay in human whole blood (pBTK assay)
Sequence of BTK (phospho-BTK) in human whole blood (Q06187 whole entry): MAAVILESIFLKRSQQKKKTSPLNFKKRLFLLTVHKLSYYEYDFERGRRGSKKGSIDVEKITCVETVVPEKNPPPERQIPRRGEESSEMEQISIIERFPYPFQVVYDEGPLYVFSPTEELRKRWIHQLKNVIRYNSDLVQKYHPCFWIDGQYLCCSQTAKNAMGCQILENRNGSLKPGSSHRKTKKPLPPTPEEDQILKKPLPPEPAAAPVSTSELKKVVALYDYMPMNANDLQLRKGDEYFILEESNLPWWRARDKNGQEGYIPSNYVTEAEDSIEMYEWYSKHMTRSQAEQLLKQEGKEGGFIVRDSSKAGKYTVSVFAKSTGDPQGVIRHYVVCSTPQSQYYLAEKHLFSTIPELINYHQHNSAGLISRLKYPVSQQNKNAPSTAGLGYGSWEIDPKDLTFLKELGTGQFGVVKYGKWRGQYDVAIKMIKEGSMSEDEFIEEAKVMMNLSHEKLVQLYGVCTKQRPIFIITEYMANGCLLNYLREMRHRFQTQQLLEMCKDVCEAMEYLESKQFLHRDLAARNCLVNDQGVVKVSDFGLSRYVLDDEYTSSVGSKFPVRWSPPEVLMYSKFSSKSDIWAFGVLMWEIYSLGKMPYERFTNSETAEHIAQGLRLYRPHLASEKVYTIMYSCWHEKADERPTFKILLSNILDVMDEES

T1 sequence (Q06187 whole entry): as above

IC50 [1]	IC50 [2]	Compound
< 0.01 µM	< 0.5 µM	Cc1cc(-c2ccnc(Nc3cnn(C4CC4)c3)n2)ccc1CNC(=O)c1cnn(C(C)(C)C)c1 [Example I-260, 1-tert-butyl-N-[[4-[2-[(1-cyclopropylpyrazol-4-yl)amino]pyrimidin-4-yl]-2-methyl-phenyl]methyl]pyrazole-4-carboxamide]
< 0.01 µM	< 0.5 µM	CCCC1CN(C(=O)NCc2ccc(-c3ccnc(Nc4cnn(C)c4)n3)cc2C)C1 [Example I-263, N-[[2-methyl-4-[2-[(1-methylpyrazol-4-yl)amino]pyrimidin-4-yl]phenyl]methyl]-3-propyl-azetidine-1-carboxamide]
< 0.01 µM	< 0.5 µM	Cc1cc(-c2cc(Nc3cc4n(n3)CCN(C)C4)ncn2)ccc1CNC(=O)c1cc(C(C)(C)C)on1 [Example I-265, 5-tert-butyl-N-[[2-methyl-4-[6-[(5-methyl-6,7-dihydro-4H-pyrazolo[1,5-a]pyrazin-2-yl)amino]pyrimidin-4-yl]phenyl]methyl]isoxazole-3-carboxamide]
< 0.01 µM	< 0.5 µM	Cc1cc(-c2cc(Nc3ccc4c(n3)CCNC4)ncn2)ccc1CNC(=O)c1cnc(C(C)(C)C)s1 [Example I-266, 2-tert-butyl-N-[[2-methyl-4-[6-(5,6,7,8-tetrahydro-1,6-naphthyridin-2-ylamino)pyrimidin-4-yl]phenyl]methyl]thiazole-5-carboxamide]
< 0.01 µM	< 0.5 µM	Cc1cc(-c2cc(Nc3cc4c(cn3)CNCC4)ncn2)ccc1CNC(=O)c1cnc(C(C)(C)C)s1 [Example I-267, 2-tert-butyl-N-[[2-methyl-4-[6-(5,6,7,8-tetrahydro-2,7-naphthyridin-3-ylamino)pyrimidin-4-yl]phenyl]methyl]thiazole-5-carboxamide]
< 0.01 µM	< 0.5 µM	Cc1cc(-c2cc(Nc3cc4c(cn3)CN(CCO)CC4)ncn2)ccc1CNC(=O)c1cnc(C(C)(C)C)s1 [Example I-268, 2-tert-butyl-N-[[4-[6-[[7-(2-hydroxyethyl)-6,8-dihydro-5H-2,7-naphthyridin-3-yl]amino]pyrimidin-4-yl]-2-methyl-phenyl]methyl]thiazole-5-carboxamide]
< 0.01 µM	< 0.5 µM	Cc1cc(-c2cc(Nc3cc4c(cn3)CN(C)CC4)ncn2)ccc1CNC(=O)c1cnc(C(C)(C)C)s1 [Example I-269, 2-tert-butyl-N-[[2-methyl-4-[6-[(7-methyl-6,8-dihydro-5H-2,7-naphthyridin-3-yl)amino]pyrimidin-4-yl]phenyl]methyl]thiazole-5-carboxamide]
< 0.01 µM	< 0.5 µM	Cc1cc(-c2cc(Nc3cc4n(n3)CCNC4)ncn2)ccc1CNC(=O)c1cnc(C(C)(C)C)s1 [Example I-270, 2-tert-butyl-N-[[2-methyl-4-[6-(4,5,6,7-tetrahydropyrazolo[1,5-a]pyrazin-2-ylamino)pyrimidin-4-yl]phenyl]methyl]thiazole-5-carboxamide]
< 0.01 µM	< 0.5 µM	Cc1cc(-c2cc(Nc3cc4n(n3)CCN(CCO)C4)ncn2)ccc1CNC(=O)c1cnc(C(C)(C)C)s1 [Example I-271, 2-tert-butyl-N-[[4-[6-[[5-(2-hydroxyethyl)-6,7-dihydro-4H-pyrazolo[1,5-a]pyrazin-2-yl]amino]pyrimidin-4-yl]-2-methyl-phenyl]methyl]thiazole-5-carboxamide]
< 0.01 µM	< 0.5 µM	Cc1cc(-c2cc(Nc3cc4n(n3)CCNC4)ncn2)ccc1CNC(=O)N1CC(OC(C)C)C1 [Example I-272, 3-isopropoxy-N-[[2-methyl-4-[6-(4,5,6,7-tetrahydropyrazolo[1,5-a]pyrazin-2-ylamino)pyrimidin-4-yl]phenyl]methyl]azetidine-1-carboxamide]
< 0.01 µM	< 0.5 µM	Cc1cc(-c2cc(Nc3cc4n(n3)CCCNC4)ncn2)ccc1CNC(=O)N1CC(OC(C)C)C1 [Example I-273, 3-isopropoxy-N-[[2-methyl-4-[6-(5,6,7,8-tetrahydro-4H-pyrazolo[1,5-a][1,4]diazepin-2-ylamino)pyrimidin-4-yl]phenyl]methyl]azetidine-1-carboxamide]
